# Measured values: patent publication US20200407717A1, “METHODS OF MODULATING ANTISENSE ACTIVITY” (Ionis Pharmaceuticals, Inc., priority 2018, published 2020)
# e = 2'-O-(2-methoxyethyl) (MOE); d = 2'-deoxy (DNA)
# Test system: Malat1 RNA
# Experiment: Antisense activity by RT-qPCR, Malat1, A431 cells
# Assay type: cell-based
# Procedure: A431 cells were grown at 10,000 cells per well and pre-treated with a variety of growth factors to determine if the addition of exogenous growth factors affects antisense activity or uptake of modified antisense oligonucleotides in a cell. The growth factors used were EGF, insulin growth factor (IGF), transforming growth factor (TGF), […] (VEGF), hepatocyte growth factor (HGF), platelet growth factor (PGF) and fibroblasts growth factor (FGF). To test antisense activity, cells were treated for 4 hours with a growth factor or vehicle alone, and then treated with compound no. 25690 (complementary to Drosha), compound no. 395254 (complementary to Malat1), or vehicle alone. RNA was isolated from the cells and Drosha or Malat1 RNA levels were measured by RT-qPCR. Human primer probe set 13816 (forward sequence […], designated herein as SEQ ID NO: 3; reverse sequence […], designated herein as SEQ ID NO: 4; probe sequence […], designated herein as SEQ ID NO: 5) was used to measure Drosha mRNA levels and primer probe set RTS2736 (forward sequence […], designated herein as SEQ ID NO: 6; reverse sequence […], designated herein as SEQ ID NO: 7; probe sequence TGCCACATCGCCACCCCGT, designated herein as SEQ ID NO: 8) was used to measure Malat1 RNA levels. Drosha and Malat1 RNA levels were normalized to total RNA content, as measured by RIBOGREEN®. Results are presented in the tables below as normalized RNA levels, relative to untreated control cells.
# A431 cells were treated with EGF or TGF at 200 ng/mL in the presence or absence of 1 μM of the EGFR tyrosine kinase inhibitor PD174265. The cells were then treated with compound no. 25690 or compound no. 395254 as in Example 8. Total RNA was isolated and analyzed by RT-qPCR, as in Example 8.
# Following siRNA treatment, cells were treated with compound no. 25690 or compound no. 395254 in the presence or absence of EGF. 16 hours after treatment with a PS-ASO with or without EGF, cells were harvested, and RNA levels were analyzed via RT-qPCR as in Example 8.
sequence,measurement,setting,value
"GGCATATGCAGATAATGTTC (sugars from the 5' end e5 d10 e5, all phosphorothioate, methylation of C not given here) [compound 395254]",Malat1 RNA (% Control),"125 nM, EGFR siRNA-1",26.5 % Control
same,Malat1 RNA (% Control),"125 nM, EGFR siRNA-2",26.6 % Control
same,Malat1 RNA (% Control),"125 nM, EGFR siRNA-2 + EGF",55.2 % Control
same,Malat1 RNA (% Control),"125 nM, EGFR siRNA-2, Table 27",53.1 % Control
same,Malat1 RNA (% Control),"125 nM, TGF",74.4 % Control
same,Malat1 RNA (% Control),"125 nM, TGF+PD174265",47.0 % Control
same,Malat1 RNA (% Control),"125 nM, TGF, Table 21",33.1 % Control
same,Malat1 RNA (% Control),"250 nM, Control",74.0 % Control
same,Malat1 RNA (% Control),"250 nM, Control Luciferase siRNA",16.3 % Control
same,Malat1 RNA (% Control),"250 nM, Control Luciferase siRNA, Table 27",27.6 % Control
same,Malat1 RNA (% Control),"250 nM, Control luciferase + EGF",24.9 % Control
same,Malat1 RNA (% Control),"250 nM, Control, Table 21",37.6 % Control
same,Malat1 RNA (% Control),"250 nM, EGF",43.6 % Control
same,Malat1 RNA (% Control),"250 nM, EGFR siRNA-1",19.7 % Control
same,Malat1 RNA (% Control),"250 nM, EGFR siRNA-2",21.5 % Control
same,Malat1 RNA (% Control),"250 nM, EGFR siRNA-2 + EGF",34.0 % Control
same,Malat1 RNA (% Control),"250 nM, EGFR siRNA-2, Table 27",29.7 % Control
same,Malat1 RNA (% Control),"250 nM, TGF",29.4 % Control
same,Malat1 RNA (% Control),"250 nM, TGF+PD174265",34.9 % Control
same,Malat1 RNA (% Control),"250 nM, TGF, Table 21",19.7 % Control
same,Malat1 RNA (% Control),"500 nM, Control",44.5 % Control
same,Malat1 RNA (% Control),"500 nM, Control Luciferase siRNA",11.9 % Control
same,Malat1 RNA (% Control),"500 nM, Control Luciferase siRNA, Table 27",18.9 % Control
same,Malat1 RNA (% Control),"500 nM, Control luciferase + EGF",17.1 % Control
same,Malat1 RNA (% Control),"500 nM, Control, Table 21",28.9 % Control
same,Malat1 RNA (% Control),"500 nM, EGF",26.1 % Control
same,Malat1 RNA (% Control),"500 nM, EGFR siRNA-1",16.9 % Control
same,Malat1 RNA (% Control),"500 nM, EGFR siRNA-2",15.1 % Control
same,Malat1 RNA (% Control),"500 nM, EGFR siRNA-2 + EGF",24.6 % Control
same,Malat1 RNA (% Control),"500 nM, EGFR siRNA-2, Table 27",23.4 % Control
same,Malat1 RNA (% Control),"500 nM, TGF",27.9 % Control
same,Malat1 RNA (% Control),"500 nM, TGF+PD174265",27.1 % Control
same,Malat1 RNA (% Control),"500 nM, TGF, Table 21",13.5 % Control
same,Malat1 RNA (% Control),"1000 nM, Control",27.0 % Control
same,Malat1 RNA (% Control),"1000 nM, Control Luciferase siRNA",7.9 % Control
same,Malat1 RNA (% Control),"1000 nM, Control Luciferase siRNA, Table 27",18.2 % Control
same,Malat1 RNA (% Control),"1000 nM, Control luciferase + EGF",15.2 % Control
same,Malat1 RNA (% Control),"1000 nM, Control, Table 21",15.2 % Control
same,Malat1 RNA (% Control),"1000 nM, EGF",15.1 % Control
same,Malat1 RNA (% Control),"1000 nM, EGFR siRNA-1",11.3 % Control
same,Malat1 RNA (% Control),"1000 nM, EGFR siRNA-2",12.7 % Control
same,Malat1 RNA (% Control),"1000 nM, EGFR siRNA-2 + EGF",21.4 % Control
same,Malat1 RNA (% Control),"1000 nM, EGFR siRNA-2, Table 27",17.2 % Control
same,Malat1 RNA (% Control),"1000 nM, TGF",14.2 % Control
same,Malat1 RNA (% Control),"1000 nM, TGF+PD174265",21.2 % Control
same,Malat1 RNA (% Control),"1000 nM, TGF, Table 21",7.2 % Control
same,Malat1 RNA (% Control),"2000 nM, Control",24.1 % Control
same,Malat1 RNA (% Control),"2000 nM, Control Luciferase siRNA",7.6 % Control
same,Malat1 RNA (% Control),"2000 nM, Control Luciferase siRNA, Table 27",15.2 % Control
same,Malat1 RNA (% Control),"2000 nM, Control luciferase + EGF",10.2 % Control
same,Malat1 RNA (% Control),"2000 nM, Control, Table 21",11.2 % Control
same,Malat1 RNA (% Control),"2000 nM, EGF",9.9 % Control
same,Malat1 RNA (% Control),"2000 nM, EGFR siRNA-1",10.2 % Control
same,Malat1 RNA (% Control),"2000 nM, EGFR siRNA-2",11.0 % Control
same,Malat1 RNA (% Control),"2000 nM, EGFR siRNA-2 + EGF",18.3 % Control
same,Malat1 RNA (% Control),"2000 nM, EGFR siRNA-2, Table 27",15.2 % Control
same,Malat1 RNA (% Control),"2000 nM, TGF",9.5 % Control
same,Malat1 RNA (% Control),"2000 nM, TGF+PD174265",10.2 % Control
same,Malat1 RNA (% Control),"2000 nM, TGF, Table 21",5.2 % Control
same,Malat1 RNA (% Control),"4000 nM, Control",17.9 % Control
same,Malat1 RNA (% Control),"4000 nM, Control Luciferase siRNA",1.3 % Control
same,Malat1 RNA (% Control),"4000 nM, Control Luciferase siRNA, Table 27",11.2 % Control
same,Malat1 RNA (% Control),"4000 nM, Control luciferase + EGF",7.2 % Control
same,Malat1 RNA (% Control),"4000 nM, Control, Table 21",7.2 % Control
same,Malat1 RNA (% Control),"4000 nM, EGF",10.3 % Control
same,Malat1 RNA (% Control),"4000 nM, EGFR siRNA-1",7.8 % Control
same,Malat1 RNA (% Control),"4000 nM, EGFR siRNA-2",11.1 % Control
same,Malat1 RNA (% Control),"4000 nM, EGFR siRNA-2 + EGF",17.2 % Control
same,Malat1 RNA (% Control),"4000 nM, EGFR siRNA-2, Table 27",15.2 % Control
same,Malat1 RNA (% Control),"4000 nM, TGF",11.6 % Control
same,Malat1 RNA (% Control),"4000 nM, TGF+PD174265",7.2 % Control
same,Malat1 RNA (% Control),"4000 nM, TGF, Table 21",5.7 % Control
same,IC50,"Control (no growth factor), Table 16",36 ± 3.2 nM
same,IC50,"Control Luciferase siRNA, Table 25",46 ± 5.3 nM
same,IC50,"Control Luciferase siRNA, Table 27",49 ± 6.3 nM
same,IC50,"Control luciferase + EGF, Table 27",26 ± 2.4 nM
same,IC50,"Control, Table 21",50 ± 7 nM
same,IC50,"EGF pre-treatment 4 hours, Table 16",15 ± 3 nM
same,IC50,"EGFR siRNA-1, Table 25",86 ± 9.3 nM
same,IC50,"EGFR siRNA-2 + EGF, Table 27",87 ± 4.2 nM
same,IC50,"EGFR siRNA-2, Table 25",100 ± 9.7 nM
same,IC50,"EGFR siRNA-2, Table 27",89 ± 5.9 nM
same,IC50,"TGF 200 ng/mL + 1 μM PD174265, Table 21",56 ± 8.1 nM
same,IC50,"TGF 200 ng/mL, Table 21",21 ± 4 nM
same,IC50,"TGF pre-treatment 4 hours, Table 16",13 ± 2.1 nM
same,"half maximal inhibitory concentration, Malat1","cells treated with IGF, FGF, HGF, VEGF or PGF relative to PS-ASO alone (data not shown)",unchanged
